SMILES strings stand for the structures.

Here are results for four molecules from ChEMBL document CHEMBL1649500, “GS-9191 is a novel topical prodrug of the nucleotide analog 9-(2-phosphonylmethoxyethyl)guanine with antiproliferative activity and possible utility in the treatment of human papillomavirus lesions” (Antimicrob Agents Chemother, 2009).

Data set [1] relates to SiHa. The experiment in a line: Inhibition of DNA synthesis in HPV-transformed human SiHa cells assessed as decrease in BrdU incorporation after 48 to 51 hrs by ELISA. The data set is classed as functional, cell-based. (Uptake of a labelled nucleoside into DNA is a usual measure of proliferation.)
Data set [2] in a line: Antiproliferative activity against human PHK after 7 days by SRB assay. On the technique in general: In SRB staining, fixed cells bind dye roughly in proportion to their protein.
Data set [3] deals with SiHa. As to the kind of experiment: Inhibition of DNA synthesis in HPV-transformed human SiHa cells assessed as decrease in BrdU incorporation after 3 hrs by ELISA. It is filed as functional, cell-based.
The nature of data set [4]: Antiproliferative activity against human CK after 7 days by SRB assay.
The nature of data set [5]: Antiproliferative activity against human lung fibroblast after 7 days by SRB assay. To be noted: 168 h.
The test system of data set [6] is SCC-4. As to the kind of experiment: Antiproliferative activity against HPV-non-transformed human SCC4 cells after 7 days by SRB assay. The data set is classed as functional, cell-based. To be noted: SCC-4, 168 h.
The subject of data set [7] is SiHa. As to the kind of experiment: Antiproliferative activity against HPV-transformed human SiHa cells after 7 days by SRB assay. The data set is classed as functional, cell-based. To be noted: 168 h.
For data set [8], the system named is SiHa. The experiment in a line: Inhibition of DNA synthesis in HPV-transformed human SiHa cells assessed as decrease in BrdU incorporation after 6 to 9 hrs by ELISA. It is filed as functional, cell-based.
Data set [9] relates to HeLa. As to the kind of experiment: Antiproliferative activity against HPV-transformed human HeLa cells after 7 days by SRB assay. The data set is classed as functional, cell-based. To be noted: 168 h.
The test system of data set [10] is SiHa. As to the kind of experiment: Inhibition of DNA synthesis in HPV-transformed human SiHa cells assessed as decrease in BrdU incorporation after 24 to 27 hrs by ELISA. The data set is classed as functional, cell-based.
Data set [11] is described as follows: Antiproliferative activity against HPV-transformed human MS751 cells after 7 days by SRB assay. To be noted: MS751, 168 h. It is filed as functional, cell-based.
A short description of data set [12]: Antiproliferative activity against PHF after 7 days by SRB assay. Also on record: species or system Homo sapiens.
Data set [13] relates to HT-3. The experiment in a line: Antiproliferative activity against HPV-non-transformed human HT3 cells after 7 days by SRB assay. It is filed as functional, cell-based. To be noted: HT-3, 168 h.
A short description of data set [14]: Antiproliferative activity against NHBE cells after 7 days by SRB assay. To be noted: Homo sapiens, 168 h. It is filed as cell-based.
Data set [15] can be described thus: Antiproliferative activity against HPV-transformed human C4I cells after 7 days by SRB assay. It is filed as functional, cell-based. To be noted: C-4I, 168 h.
Data set [16] has as its system Ca-Ski. The experiment in a line: Antiproliferative activity against HPV-transformed human CaSki cells after 7 days by SRB assay. It is filed as functional, cell-based. To be noted: 168 h.
Data set [17] has as its system SiHa. The experiment in a line: Inhibition of DNA synthesis in HPV-transformed human SiHa cells assessed as decrease in BrdU incorporation after 72 to 75 hrs by ELISA. The data set is classed as functional, cell-based.
Data set [18] has as its system ME-180. As to the kind of experiment: Antiproliferative activity against HPV-transformed human ME180 cells after 7 days by SRB assay. It is filed as functional, cell-based. To be noted: ME-180, 168 h.
In data set [19] the test system is SiHa. The experiment in a line: Inhibition of DNA synthesis in HPV-transformed human SiHa cells assessed as decrease in BrdU incorporation after 3 to 6 hrs by ELISA. It is filed as functional, cell-based.
Data set [20] concerns SCC-9. As to the kind of experiment: Antiproliferative activity against HPV-non-transformed human SCC9 cells after 7 days by SRB assay. It is filed as functional, cell-based. To be noted: SCC-9, 168 h.
In data set [21] the test system is SiHa. The experiment in a line: Induction of apoptosis in HPV-transformed human SiHa cells assessed as apoptotic cells at 180000 nM after 3 days by propidium iodide staining-based flow cytometry. The data set is classed as functional. (In flow cytometry, cells or beads pass a laser one at a time.)
The subject of data set [22] is SiHa. As to the kind of experiment: Induction of apoptosis in HPV-transformed human SiHa cells assessed as apoptotic cells at 180000 nM after 7 days by propidium iodide staining-based flow cytometry. The data set is classed as functional.
Data set [23] has as its system SiHa. The experiment in a line: Induction of apoptosis in HPV-transformed human SiHa cells assessed as viable cells at 180000 nM after 3 days by propidium iodide staining-based flow cytometry. The data set is classed as functional. To be noted: 72 h, read-out: Activity.
For data set [24], the system named is SiHa. As to the kind of experiment: Induction of apoptosis in HPV-transformed human SiHa cells assessed as viable cells at 180000 nM after 7 days by propidium iodide staining-based flow cytometry. It is filed as functional. To be noted: 168 h, read-out: Activity.
Data set [25] can be described thus: Cell cycle arrest in human PHK cells assessed as accumulation at S phase at 10 times EC50 after 48 hrs by flow cytometry. The data set is classed as cell-based.
Data set [26] is described as follows: Cell cycle arrest in human PHK cells assessed as accumulation at G0/G1 phase at 10 times EC50 after 48 hrs by flow cytometry. The data set is classed as cell-based.
The subject of data set [27] is SiHa. The experiment in a line: Cell cycle arrest in HPV-transformed human SiHa cells assessed as accumulation at G0/G1 phase at 10 times EC50 after 48 hrs by flow cytometry. It is filed as functional.
The subject of data set [28] is SiHa. As to the kind of experiment: Cell cycle arrest in HPV-transformed human SiHa cells assessed as accumulation at G2/M phase at 10 times EC50 after 48 hrs by flow cytometry. The data set is classed as functional.
In data set [29] the test system is SiHa. As to the kind of experiment: Cell cycle arrest in HPV-transformed human SiHa cells assessed as accumulation at S phase at 10 times EC50 after 48 hrs by flow cytometry. It is filed as functional.
Data set [30] can be described thus: Cell cycle arrest in human PHK cells assessed as accumulation at G2/M phase at 10 times EC50 after 48 hrs by flow cytometry. The data set is classed as cell-based.

As to `Nc1nc(NC2CC2)c2ncn(CCOCP(=O)(O)O)c2n1`, the half-maximal effective concentration (EC50) in [1] is 2.65 µM; in data set [2], 3.7 µM; in data set [3], 8.84 µM; in data set [4] it was 1.38 µM; in [5] it was 4.82 µM; in [6], 1.43 µM. Moreover, the EC50 in data set [7] came to 0.29 µM; in data set [8], 1.5 µM; in data set [9], 6.93 µM; in [10] it was 2.3 µM; in data set [11], 3.31 µM; in [12], 12.7 µM. Also, the EC50 in data set [13] is 7.04 µM; in [14] it was 2.3 µM; in data set [15], 1.33 µM; in data set [16], 1.41 µM; in [17], over 20 µM; in data set [18], 8.32 µM. Further, the results for the EC50 in data set [19] and in data set [20] were 1.86 µM and 10.1 µM, respectively.

For `Nc1ccn(C[C@@H](CO)OCP(=O)(O)O)c(=O)n1.O.O` [CIDOFOVIR], the EC50 in data set [2] is 14.4 µM; in data set [4], 51.7 µM; in [5], 23.5 µM; in data set [6], over 100 µM; in [7] it was over 100 µM; in [9], over 100 µM. In addition, the half-maximal effective concentration (EC50) in data set [11] is over 100 µM; in [12] it was over 100 µM; in [13], over 100 µM; in data set [14] it was 31.9 µM; in data set [15], 3.1 µM; in [16], over 100 µM. In addition, the EC50 in data set [18] is 64.7 µM; in [20], over 100 µM. For the same molecule, the Activity in data set [21] is reported as 1.6%; in data set [22], 37.2%. The viability at 180 µM in [23] amounted to 98.1%; in data set [24] it was 62.2%.

Regarding `Nc1nc2c(ncn2CCOCP(=O)(O)O)c(=O)[nH]1` [GS-438], the EC50 is 6.02 µM in data set [1]; 0.55 µM in [2]; 8.97 µM in [3]; over 100 µM in data set [4]; 0.29 µM in data set [5]; 0.16 µM in [6]. In addition, the concentration giving a half-maximal response (EC50) stood at 0.21 µM in [7]; 2.58 µM in [8]; 2.16 µM in [9]; 3.63 µM in [10]; 2.8 µM in data set [11]; 1.58 µM in data set [12]. Besides, the concentration giving a half-maximal response (EC50) was 1.93 µM in data set [13]; 0.67 µM in [14]; 0.47 µM in data set [15]; 5.53 µM in data set [16]; 10.1 µM in data set [17]; 2.57 µM in [18]. Also, the values for the concentration giving a half-maximal response (EC50) in data set [19] and in data set [20] were 3.04 µM and 3.15 µM, respectively.

Regarding `COc1cc([C@@H]2c3cc4c(cc3[C@H](O)[C@H]3COC(=O)[C@H]23)OCO4)cc(OC)c1OC` [PODOFILOX], the Activity in data set [25] was determined as 16.7%; in [26], 66.8%; in data set [27], 20.4%; in data set [28], 45%; in [29], 34.7%; in data set [30] it was 16.5%.

What is called EC50 is the concentration giving half of the maximal effect.
